This data set in a line: Net charge and isoelectric point of peptide. The conditions noted are these: pH 7. The data set is classed as physicochemical. From the text:
The peptide may be purified. For example, the peptide may be lyophilized. […] Other peptides are within the scope of the disclosure.
Exemplary peptides having a charge of +5 to +9 include […](d)[…], […](d)[…], and […](d)[…]. In other embodiments, the purified peptide may be substantially neutral. […] Net charge may be selected by peptide design. Design of electrostatic charge in the peptide hydrogel may allow control of charge interaction with cell membrane and proteins.

With VEVSVSVEV(d)PPTEVSVEVEV, the net charge result was “net negative charge”.

The record behind these values is patent US20240398868A1 (GEL4MED, INC., priority 2020, published 2024).
